# Reference: US20100285145A1, “GPR 119 MODULATORS” (PFIZER INC, priority 2009, published 2010)
# “And” between values parts separate entries of the source, which are not always exact repeats. Identical values can stand only once.
# Assays:
# human GPR119 [1] = target: T1, human GPR119 (Homo sapiens, UniProt Q8TDV5); test: β-Lactamase reporter functional assay (hGPR119 HEK293-CRE beta-lactamase cells); format: cell-based; set-up: host or cells: HEK293-CRE beta-lactamase; Emax: dose or concentration left out as unconfirmed
# T1 sequence (Q8TDV5 1-335): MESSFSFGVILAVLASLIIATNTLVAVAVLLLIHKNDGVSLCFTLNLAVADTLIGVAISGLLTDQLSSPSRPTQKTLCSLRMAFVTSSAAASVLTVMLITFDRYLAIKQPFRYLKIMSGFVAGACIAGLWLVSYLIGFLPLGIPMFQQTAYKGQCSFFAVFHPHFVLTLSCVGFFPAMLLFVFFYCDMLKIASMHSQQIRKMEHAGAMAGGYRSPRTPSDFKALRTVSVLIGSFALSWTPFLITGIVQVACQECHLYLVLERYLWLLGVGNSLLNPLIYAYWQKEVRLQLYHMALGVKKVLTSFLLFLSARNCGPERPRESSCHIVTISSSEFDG
# Method: The assay for GPR119 agonists utilizes a cell-based (hGPR119 HEK293-CRE beta-lactamase) reporter construct where agonist activation of human GPR119 is coupled to beta-lactamase production via a cyclic AMP response element (CRE). GPR119 activity is then measured utilizing a FRET-enabled beta-lactamase substrate, CCF4-AM (Live Blazer FRET-B/G Loading kit, Invitrogen cat #K1027). Specifically, hGPR119-HEK-CRE-beta-lactamase cells (Invitrogen 2.5×10^7/mL) were removed from liquid nitrogen storage, and diluted in plating medium (Dulbecco's modified Eagle medium high glucose (DMEM; Gibco Cat # 11995-065), 10% heat inactivated fetal bovine serum (HIFBS; Sigma Cat # F4135), 1×MEM Nonessential amino acids (Gibco Cat # 15630-080), 25 mM HEPES pH 7.0 (Gibco Cat # 15630-080), 200 nM potassium clavulanate (Sigma Cat # P3494). The cell concentration was adjusted using cell plating medium and 50 microL of this cell suspension ([…]) was added into each well of a black, clear bottom, poly-d-lysine coated 384-well plate (Greiner Bio-One cat# 781946) and incubated at 37 degrees Celsius in a humidified environment containing 5% carbon dioxide. After 4 hours the plating medium was removed and replaced with 40 microL of assay medium (Assay medium is plating medium without potassium clavulanate and HIFBS). Varying concentrations of each compound to be tested was then added in a volume of 10 microL (final DMSO ≦0.5%) and the cells were incubated for 16 hours at 37 degrees Celsius in a humidified environment containing 5% carbon dioxide. Plates were removed from the incubator and allowed to equilibrate to room temperature for approximately 15 minutes. 10 microL of 6×CCF4/AM working dye solution (prepared according to instructions in the Live Blazer FRET-B/G Loading kit, Invitrogen cat #K1027) was added per well and incubated at room temperature for 2 hours in the dark. Fluorescence was measured on an EnVision fluorimetric plate reader, excitation 405 nm, emission 460 nm/535 nm. EC50 determinations were made from agonist-response curves analyzed with a curve fitting program using a 4-parameter logistic dose-response equation.
# human GPR119 [2] = target: T1, human GPR119; test: GPR119 radioligand binding assay ([3H]-Compound A or B, membranes of HEK 293FT cells expressing hGPR119); set-up: host or cells: HEK293-CRE beta-lactamase; settings: calculated from IC50 with Cheng-Prusoff; each line a separate determination
# Method: HEK 293FT cells (Invitrogen, Carlsbad, Calif.) were grown in a shake flask in 293Freestyle medium (Invitrogen) supplemented with 50 microg/mL neomycin and 10 mM HEPES (37C, 8% carbon dioxide, shaking). The cells were centrifuged gently (approximately 500×g, 10 minutes) and the pellet resuspended in a mixture of Dulbecco's PBS (minus Mg++/−Ca++) supplemented with 18% fetal bovine serum (Sigma Aldrich) and P1 virus such that the multiplicity of infection (MOI) was 10 and the final cell density was 1.3×10^6/mL (total volume 2.5 liters). The cells were transferred to a 5 liter Wave Bioreactor Wavebag (Wave Technologies, Mass.) and incubated for 4 hours at 27 degrees Celsius (17 rocks/min, 7 degrees platform angle); at the end of the incubation period, an equal volume (2.5 liters) of 293Freestyle medium supplemented with 30 mM sodium butyrate (Sigma Aldrich) was added (final concentration=15 mM), and the cells were grown for 20 hours (37 degrees Celsius, 8% CO2 [0.2 liters/min}, 25 rocks/minute, 7 degrees platform angle). Cells were harvested via centrifugation (3,000×g, 10 minutes), washed once on DPBS (minus Ca++/Mg++), resuspended in 0.25M sucrose, 25 mM HEPES, 0.5 mM EDTA, pH 7.4 and frozen at −80 degrees Celsius.
# The frozen cells were thawed on ice and centrifuged at 700×g (1400 rpm) for 10 minutes at 4 degrees Celsius. The cell pellet was resuspended in 20 mL phosphate-buffered saline, and centrifuged at 1400 rpm for 10 minutes. The cell pellet was then resuspended in homogenization buffer (10 mM HEPES (Gibco #15630), pH 7.5, 1 mM EDTA (BioSolutions, #BIO260-15), 1 mM EGTA (Sigma, #E-4378), 0.01 mg/mL benzamidine (Sigma #B 6506), 0.01 mg/mL bacitracin (Sigma #B 0125), 0.005 mg/mL leupeptin (Sigma #L 8511), 0.005 mg/mL aprotinin (Sigma #A 1153)) and incubated on ice for 10 minutes. Cells were then lysed with 15 gentle strokes of a tight-fitting glass Dounce homogenizer. The homogenate was centrifuged at 1000×g (2200 rpm) for 10 minutes at 4 degrees Celsius. The supernatant was transferred into fresh centrifuge tubes on ice. The cell pellet was resuspended in homogenization buffer, and centrifuged again at 1000×g (2200 rpm) for 10 minutes at 4 degrees Celsius after which the supernatant was removed and the pellet resuspended in homogenization buffer. This process was repeated a third time, after which the supernatants were combined, Benzonase (Novagen # 71206) and MgCl2 (Fluka #63020) were added to final concentrations of 1 U/mL and 6 mM, respectively, and incubated on ice for one hour. The solution was then centrifuged at 25,000×g (15000 rpm) for 20 minutes at 4 degrees Celsius, the supernatant was discarded, and the pellet was resuspended in fresh homogenization buffer (minus Benzonase and MgCl2). After repeating the 25,000×g centrifugation step, the final membrane pellet was resuspended in homogenization buffer and frozen at −80 degrees Celsius. The protein concentration was determined using the Pierce BCA protein assay kit (Pierce reagents A #23223 and B #23224).
# Test compounds were serially diluted in 100% DMSO (J. T. Baker #922401). 2 microL of each dilution was added to appropriate wells of a 96-well plate (each concentration in triplicate). Unlabeled Compound A (or Compound B), at a final concentration of 10 microM, was used to determine non-specific binding. [^3H]-Compound A (or [^3H]-Compound B) was diluted in binding buffer (50 mM Tris-HCl, pH 7.5, (Sigma #T7443), 10 mM MgCl2 (Fluka 63020), 1 mM EDTA (BioSolutions #BIO260-15), 0.15% bovine serum albumin (Sigma #A7511), 0.01 mg/mL benzamidine (Sigma #B 6506), 0.01 mg/mL bacitracin (Sigma #B 0125), 0.005 mg/mL leupeptin (Sigma #L 8511), 0.005 mg/mL aprotinin (Sigma #A 1153)) to a concentration of 60 nM, and 100 microL added to all wells of 96-well plate (Nalge Nunc # 267245). […]
# human GPR119 [3] = target: T1, human GPR119; test: cAMP HTRF functional assay (hGPR119 HEK-CRE beta-lactamase cells); format: cell-based; set-up: host or cells: HEK293-CRE beta-lactamase
# Method: GPR119 agonist activity was also determined with a cell-based assay utilizing an HTRF (Homogeneous Time-Resolved Fluorescence) cAMP detection kit (cAMP dynamic 2 Assay Kit; Cis Bio cat #62AM4PEC) that measures cAMP levels in the cell. The method is a competitive immunoassay between native cAMP produced by the cells and the cAMP labeled with the dye d2. The tracer binding is visualized by a Mab anti-cAMP labeled with Cryptate. The specific signal (i.e. energy transfer) is inversely proportional to the concentration of cAMP in either standard or sample.
# Specifically, hGPR119 HEK-CRE beta-lactamase cells (Invitrogen 2.5×10^7/mL; the same cell line used in the beta-lactamase assay described above) are removed from cryopreservation and diluted in growth medium (Dulbecco's modified Eagle medium high glucose (DMEM; Gibco Cat # 11995-065), 1% charcoal dextran treated fetal bovine serum (CD serum; HyClone Cat # SH30068.03), 1×MEM Nonessential amino acids (Gibco Cat # 15630-080) and 25 mM HEPES pH 7.0 (Gibco Cat # 15630-080)). The cell concentration was adjusted to 1.5×10^5 cells/mL and 30 mLs of this suspension was added to a T-175 flask and incubated at 37 degrees Celsius in a humidified environment in 5% carbon dioxide. After 16 hours (overnight), the cells were removed from the T-175 flask (by rapping the side of the flask), centrifuged at 800×g and then re-suspended in assay medium (1×HBSS+CaCl2+MgCl2 (Gibco Cat # 14025-092) and 25 mM HEPES pH 7.0 (Gibco Cat # 15630-080)). The cell concentration was adjusted to 6.25×10^5 cells/mL with assay medium and 8 μl of this cell suspension (5000 cells) was added to each well of a white Greiner 384-well, low-volume assay plate (VWR cat #82051-458).
# Varying concentrations of each compound to be tested were diluted in assay buffer containing 3-isobutyl-1-methylxanthin (IBMX; Sigma cat #15879) and added to the assay plate wells in a volume of 2 microL (final IBMX concentration was 400 microM and final DMSO concentration was 0.58%). Following 30 minutes incubation at room temperature, 5 microL of labeled d2 cAMP and 5 microL of anti-cAMP antibody (both diluted 1:20 in cell lysis buffer; as described in the manufacturers assay protocol) were added to each well of the assay plate. The plates were then incubated at room temperature and after 60 minutes, changes in the HTRF signal were read with an Envision 2104 multilabel plate reader using excitation of 330 nm and emissions of 615 and 665 nm. Raw data were converted to nM cAMP by interpolation from a cAMP standard curve (as described in the manufacturer's assay protocol) and EC50 determinations were made from an agonist-response curves analyzed with a curve fitting program using a 4-parameter logistic dose response equation.
SMILES,"EC50 (human GPR119 [1]; hGPR119 HEK293-CRE beta-lactamase cells, 16 h incubation, each line a separate determination, read-out: Human B-lactamase Functional EC50)","Emax (human GPR119 [1]; percent of maximal activity relative to standard GPR119 agonist at 10 micromolar, read-out: Intrinsic Activity (Human B-lactamase))",Ki (human GPR119 [2]),"EC50 (human GPR119 [3]; HTRF cAMP, 30 min, 400 microM IBMX, each line a separate determination)",Intrinsic Activity (Human cAMP) (human GPR119 [3]; percent of maximal activity relative to standard GPR119 agonist at 10 micromolar),"Emax (human GPR119 [3]; percent of maximal activity relative to standard GPR119 agonist at 10 micromolar, read-out: Intrinsic Activity (Human cAMP))"
"COc1c(OC2CCN(C(=O)OC(C)C)CC2)ncnc1N1CCc2cc(S(C)(=O)=O)ccc21 [Example 7, Isopropyl 4-({5-methoxy-6-[5-(methylsulfonyl)-2,3-dihydro-1H-indol-1-yl]pyrimidin-4-yl}oxy)piperidine-1-carboxylate]",96.6 nM,101%,285 nM,,,
"Cc1c(O[C@@H]2CCN(C(=O)OC(C)(C)C)C[C@@H]2F)ncnc1N1CCc2nnccc21 [Example 30, tert-Butyl (3S,4R)-4-{[6-(6,7-dihydro-5H-pyrrolo[3,2-c]pyridazin-5-yl)-5-methylpyrimidin-4-yl]oxy}-3-fluoropiperidine-1-carboxylate]",,,> 8150 nM,549 nM and 520 nM,28%,28%
